# Assay results as given in US5156956A, “Transgultaminase” (Ajinomoto Co., Inc., priority 1987, dated 1992).
# T1: BTG-3 (Streptomyces cinnamoneus, UniProt Q8GR90)
# T1 construct: Ca2+-independent; made as pre-pro-protein
# T1 sequence (Q8GR90 86-416): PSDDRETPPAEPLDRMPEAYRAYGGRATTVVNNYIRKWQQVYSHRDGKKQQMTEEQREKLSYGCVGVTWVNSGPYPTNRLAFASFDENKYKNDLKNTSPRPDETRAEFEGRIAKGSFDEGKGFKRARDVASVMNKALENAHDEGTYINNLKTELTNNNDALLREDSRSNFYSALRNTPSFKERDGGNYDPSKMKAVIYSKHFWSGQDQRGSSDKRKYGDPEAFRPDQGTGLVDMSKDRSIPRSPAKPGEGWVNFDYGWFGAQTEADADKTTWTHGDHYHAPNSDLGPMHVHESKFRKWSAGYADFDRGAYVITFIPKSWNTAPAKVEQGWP
# T2: BTG-1 (Streptomyces mobaraensis, UniProt P81453)
# T2 construct: BTGase is dissolved in the culture solution and can be harvested from the culture filtrate; endogenous in cells; host or cells: Streptoverticillium mobaraense IFO 13819 (natural producer; purified from culture filtrate)
# T2 sequence (P81453 77-407): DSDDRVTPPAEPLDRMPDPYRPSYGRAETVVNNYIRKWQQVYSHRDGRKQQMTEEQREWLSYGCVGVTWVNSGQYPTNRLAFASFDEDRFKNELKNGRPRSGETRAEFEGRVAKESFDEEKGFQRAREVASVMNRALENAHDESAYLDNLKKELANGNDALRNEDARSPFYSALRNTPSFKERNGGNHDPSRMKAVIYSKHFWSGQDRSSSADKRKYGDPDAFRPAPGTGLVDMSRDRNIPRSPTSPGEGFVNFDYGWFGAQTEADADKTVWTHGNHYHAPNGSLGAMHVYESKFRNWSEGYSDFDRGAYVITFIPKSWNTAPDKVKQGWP
# B1: BTG-1: transglutaminase of Streptoverticillium mobaraense IFO 13819 (protein, UniProt P81453 77-407, looked up)
# Protein-glutamine …: T2 sequence (P81453 77-407)
# Key:
# BTG-3 [1] = molecular target: T1, BTG-3; test: Influence of metal ions on activity; assay type: biochemical; conditions: metal ion 1 mM; None = 100; 30 min
# Method: (§1) Measurement of the activity of BTGase is carried out by performing a reaction using benzyloxycarbonyl-L-glutaminyl glycine and hydroxylamine as substrates in the absence of Ca^2+, forming an iron complex with the resulting hydroxamic acid in the presence of trichloroacetic acid, measuring absorption at 525 nm and determining the amount of hydroxamic acid by a calibration curve to calculate the activity. The BTGase activity is measured by the method described below, unless otherwise indicated.
# (§2) To 0.05 ml of an enzyme solution is added 0.5 ml of Reagent A and they are mixed with each other. After reacting at 37° C. for 30 minutes, Reagent B is added thereto to discontinue the reaction and form an Fe complex. Thereafter, absorbance is measured at 525 nm. […] Separately, a calibration curve is prepared using L-glutamic acid γ-monohydroxamio acid instead of the enzyme solution, and the amount of hydroxamic acid produced is determined by the difference in absorbance described above. An enzyme activity which produces 1 μmol of hydroxamic acid per 1 minute is defined as 1 unit.
# all BTGases [2] = test: Influence of metal ions, statement on all BTGases; assay type: biochemical, Streptoverticillium; conditions: metal ion 1 mM
# Excerpt: In all BTGases, the activity is inhibited by Cu^2+ and Zn^2+.
# BTG-2 [3] = molecular target: T3, BTG-2 (Streptomyces griseocarneus, UniProt A0ABX7RSJ1); assay type: biochemical, Streptoverticillium griseocarneum IFO 12776; conditions: metal ion 1 mM; None = 100; 30 min
# T3 construct: Ca2+-independent; made as pre-pro-protein
# Method: as §1, §2
# BTG-1 [4] = molecular target: T2, BTG-1; test: Influence of metal ions on activity; assay type: biochemical, Streptoverticillium mobaraense IFO 13819; conditions: metal ion 1 mM; None = 100; 30 min
# Method: as §1, §2
# BTG-3 [5] = molecular target: T1, BTG-3; test: biochemical; conditions: inhibitor 1 mM, 25° C. for 30 minutes, None = 100
# Method: as §1, §2
# all BTGases [6] = conditions: inhibitor 1 mM, 25° C. for 30 minutes
# BTG-2 [7] = molecular target: T3, BTG-2; test: biochemical; set-up: species or system Streptoverticillium griseocarneum IFO 12776
# Method: as §1, §2
# BTG-1 [8] = molecular target: T2, BTG-1; test: biochemical; set-up: species or system Streptoverticillium mobaraense IFO 13819; conditions: inhibitor 1 mM, 25° C. for 30 minutes, None = 100
# Method: as §1, §2
# Optimum pH = assay type: biochemical; conditions: 37° C. for 10 minutes
# [9] = Activity of the enzymes without added Ca2+; assay type: biochemical; conditions: no CaCl2 added (Table 5)
# Method: as §1
# pH stability = assay type: physicochemical; conditions: treatment at 37° C. for 10 minutes
# Temperature stability = assay type: physicochemical; conditions: pH 7 for 10 minutes
molecule,measurement,setting,value
[Cl-].[Cl-].[Zn+2] [ZnCl2],BTG-3 (%) activity with metal ion,BTG-3 [1],24%
same,Effect of metal ion on activity of all BTGases (in words),all BTGases [2],inhibited
same,BTG-2 (%) activity with metal ion,BTG-2 [3],24%
same,BTG-1 (%) activity with metal ion,BTG-1 [4],15%
[Cl][Cu][Cl] [CuCl2],BTG-3 (%) activity with metal ion,BTG-3 [1],86%
same,Effect of metal ion on activity of all BTGases (in words),all BTGases [2],inhibited
same,BTG-2 (%) activity with metal ion,BTG-2 [3],82%
same,BTG-1 (%) activity with metal ion,BTG-1 [4],79%
"CCN1C(=O)C=CC1=O [NEM, N-ethylmaleimide]",inhibition at 1000 µM,BTG-3 [5]; read-out: BTG-3 (%) activity with inhibitor,3%
same,Effect of inhibitor on activity of all BTGases (in words),all BTGases [6],inhibited
same,inhibition at 1000 µM,BTG-2 [7]; read-out: BTG-2 (%) activity with inhibitor,5%
same,inhibition at 1000 µM,BTG-1 [8]; read-out: BTG-1 (%) activity with inhibitor,5%
"O=C(O)c1cc[c]([Hg][Cl])cc1 [PCMB, p-chloromercury benzoic acid]",BTG-3 (%) activity with inhibitor,BTG-3 [5],63%
same,Effect of inhibitor on activity of all BTGases (in words),all BTGases [6],inhibited
same,BTG-2 (%) activity with inhibitor,"BTG-2 [7]; inhibitor 1 mM, 25° C. for 30 minutes, None = 100",61%
same,BTG-1 (%) activity with inhibitor,BTG-1 [8],54%
B1,Optimum pH,Optimum pH,6-7
same,"Activity (%) of the enzyme, metal ion: None",[9],99%
same,pH Stability (stable pH range),pH stability,5-9
same,"Temperature stability (%), 40° C. residual rate",Temperature stability; 40° C.,88%
same,"Temperature stability (%), 50° C. residual rate",Temperature stability; 50° C.,74%
